According to the NIST ThermoML archive (doi:10.1021/acs.jced.6b00391):
“And” between values parts separate entries of the source, which are not always exact repeats. Equal entries are not always repeated.

Columns and labels:
[1] = Liquid, Capillary tube (Ostwald / Ubbelohde) method
[2] = xn = mol fraction of the nth substance listed; settings: Liquid, Capillary tube (Ostwald / Ubbelohde) method

CCCCCCCC [octane]
[1], 3100 kPa
Settings | viscosity
303.2 K | 0.4913 mPa·s and 0.4948 mPa·s
313.3 K | 0.4426 mPa·s and 0.4431 mPa·s
323.2 K | 0.3961 mPa·s and 0.3979 mPa·s
333.2 K | 0.3634 mPa·s and 0.3617 mPa·s
343.2 K | 0.3311 mPa·s and 0.3308 mPa·s
353.1 K | 0.3013 mPa·s and 0.3032 mPa·s
363.2 K | 0.2765 mPa·s and 0.2775 mPa·s
373.3 K | 0.254 mPa·s and 0.258 mPa·s
383 K | 0.234 mPa·s and 0.2379 mPa·s
393.1 K | 0.2205 mPa·s and 0.2202 mPa·s
403.2 K | 0.2019 mPa·s and 0.204 mPa·s
413.2 K | 0.1905 mPa·s and 0.1902 mPa·s
423.2 K | 0.1761 mPa·s and 0.1775 mPa·s
433.1 K | 0.1643 mPa·s and 0.1642 mPa·s
443.2 K | 0.1526 mPa·s and 0.1514 mPa·s
453.1 K | 0.1417 mPa·s and 0.1428 mPa·s
463.2 K | 0.1321 mPa·s and 0.1318 mPa·s
473.1 K | 0.1228 mPa·s and 0.1241 mPa·s
483.1 K | 0.1138 mPa·s and 0.1152 mPa·s
493.1 K | 0.1068 mPa·s and 0.1072 mPa·s
503 K | 0.0993 mPa·s and 0.0983 mPa·s
513.2 K | 0.0901 mPa·s and 0.0904 mPa·s
523.3 K | 0.0825 mPa·s and 0.0826 mPa·s
533.4 K | 0.0753 mPa·s and 0.0751 mPa·s
543.4 K | 0.0678 mPa·s and 0.0678 mPa·s
553.4 K | 0.0607 mPa·s and 0.0609 mPa·s
563.3 K | 0.0532 mPa·s and 0.0534 mPa·s
573.3 K | 0.0444 mPa·s and 0.0446 mPa·s
583.1 K | 0.0325 mPa·s and 0.0323 mPa·s

CCCCCCCCCCCC [dodecane]
[1], 5000 kPa
Settings | viscosity
303.2 K | 1.334 mPa·s and 1.314 mPa·s
313.2 K | 1.122 mPa·s and 1.116 mPa·s
323 K | 0.97 mPa·s and 0.9626 mPa·s
333.1 K | 0.8519 mPa·s and 0.8434 mPa·s
343.3 K | 0.7442 mPa·s and 0.7445 mPa·s
353.3 K | 0.6736 mPa·s and 0.6661 mPa·s
363.2 K | 0.6075 mPa·s and 0.5969 mPa·s
373.3 K | 0.5467 mPa·s and 0.5397 mPa·s
383.2 K | 0.4902 mPa·s and 0.4913 mPa·s
393.2 K | 0.4472 mPa·s and 0.448 mPa·s
403.2 K | 0.4112 mPa·s and 0.4118 mPa·s
413.2 K | 0.3785 mPa·s and 0.3799 mPa·s
423.2 K | 0.3508 mPa·s and 0.3516 mPa·s
433.2 K | 0.3277 mPa·s and 0.3259 mPa·s
443.4 K | 0.2974 mPa·s and 0.3041 mPa·s
453.1 K | 0.2822 mPa·s and 0.2827 mPa·s
463.2 K | 0.2604 mPa·s and 0.2619 mPa·s
473.2 K | 0.244 mPa·s and 0.244 mPa·s
483.1 K | 0.225 mPa·s and 0.2259 mPa·s
493.2 K | 0.2076 mPa·s and 0.2072 mPa·s
503.2 K | 0.1964 mPa·s and 0.1969 mPa·s
513.1 K | 0.1846 mPa·s and 0.1835 mPa·s
523.2 K | 0.1722 mPa·s and 0.1698 mPa·s
533.1 K | 0.1608 mPa·s and 0.1591 mPa·s
543.2 K | 0.1489 mPa·s and 0.1487 mPa·s
553.2 K | 0.1375 mPa·s and 0.1391 mPa·s
563.2 K | 0.1297 mPa·s and 0.1305 mPa·s
573.2 K | 0.1201 mPa·s and 0.1221 mPa·s
583.3 K | 0.1126 mPa·s and 0.1141 mPa·s
593.2 K | 0.1031 mPa·s and 0.1064 mPa·s
603.2 K | 0.0974 mPa·s and 0.0987 mPa·s
613.2 K | 0.0913 mPa·s and 0.0915 mPa·s
623.1 K | 0.0839 mPa·s and 0.0849 mPa·s
633.2 K | 0.0767 mPa·s and 0.0786 mPa·s
643.1 K | 0.0694 mPa·s and 0.0714 mPa·s
653.2 K | 0.0657 mPa·s and 0.065 mPa·s
663.2 K | 0.0605 mPa·s and 0.0605 mPa·s
673.2 K | 0.0551 mPa·s and 0.0548 mPa·s

CCCCCCCC [octane] + CCCCCCC
viscosity, [2]
Settings | 100 kPa | 5000 kPa
303.5 K, x2 = 0.255 | 0.4422 mPa·s and 0.4417 mPa·s | –
303.5 K, x2 = 0.51 | 0.4149 mPa·s and 0.413 mPa·s | 0.4362 mPa·s and 0.4357 mPa·s
303.9 K, x2 = 0.255 | – | 0.4663 mPa·s and 0.4658 mPa·s
305.7 K, x2 = 0.759 | 0.3798 mPa·s and 0.3784 mPa·s | 0.4032 mPa·s and 0.4029 mPa·s
333.5 K, x2 = 0.51 | 0.3011 mPa·s and 0.3026 mPa·s | –
333.8 K, x2 = 0.255 | 0.3234 mPa·s and 0.3228 mPa·s | –
335.6 K, x2 = 0.759 | 0.2815 mPa·s and 0.2806 mPa·s | –
363.4 K, x2 = 0.255 | 0.2447 mPa·s and 0.2464 mPa·s | –
363.4 K, x2 = 0.51 | 0.2329 mPa·s and 0.2323 mPa·s | –
364.6 K, x2 = 0.759 | 0.2164 mPa·s and 0.2169 mPa·s | –
373.2 K, x2 = 0.255 | – | 0.2415 mPa·s and 0.2402 mPa·s
373.2 K, x2 = 0.759 | – | 0.2181 mPa·s and 0.2175 mPa·s
373.6 K, x2 = 0.51 | – | 0.2277 mPa·s and 0.2275 mPa·s
413.7 K, x2 = 0.51 | – | 0.1702 mPa·s and 0.1698 mPa·s
413.9 K, x2 = 0.255 | – | 0.1792 mPa·s and 0.1801 mPa·s
424.4 K, x2 = 0.759 | – | 0.1497 mPa·s and 0.1493 mPa·s
472.5 K, x2 = 0.759 | – | 0.1071 mPa·s and 0.1075 mPa·s
473.4 K, x2 = 0.51 | – | 0.1124 mPa·s and 0.1125 mPa·s
473.5 K, x2 = 0.255 | – | 0.1186 mPa·s and 0.1184 mPa·s
